In paper PMC7893792 (ACS Omega, 2021):

Key:
[1] = cited from earlier work
[2] = substrate: O=C(O)c1ccc(C(=O)O)c(-c2c3ccc(=O)cc-3oc3cc(O)ccc23)c1; assay: 6-CF uptake by rOat3-expressing HEK293 cells; assay type: cell-based, rat; settings: other: HEK293-rOat3, 2 min, 37 °C, pH 7.4, 1-100 μM 6-CF

Q: For carboxyfluorescein, which “Binding to serum protein” value [1] is on record?
A: ~90%

B1: rOat3 (Rattus norvegicus) (protein)
chain: MTFSEILDRVGSMGPFQYLHVTLLALPVLGIANHNLLQIFTATTPVHHCRPPPNASIGPWVLPLDPNGKPEKCLRFVHLPNASLPNDTQRATEPCLDGWIYNSTRDTIVIEWDLVCSSNKLKEMAQSIFMAGILVGGPVIGELSDRFGRKPILTWSYLMLAASGSGAAFSPSLPVYMIFRFLCGCSISGISLSTVILNVEWVPTSMRAISSTSIGYCYTIGQFILSGLAYAIPQWRWLQLTSSAPFFIFSLLSWWVPESIRWLVLSGKYSKALKTLQRVATFNGKKEEGKKLTIEELKFNLQKDITSAKVKYGLSDLFRVSILRRVTFCLSLAWFSTGFAYYSLAMGVEEFGVNIYILQIIFGGVDIPAKFITILSLSYLGRRITQSFLLLLAGGAILALIFVPSEMQLLRTALAVFGKGCLSGSFSCLFLYTSELYPTVLRQTGMGISNVWARVGSMIAPLVKITGELQPFIPNVIFGTTALLGGSAAFFLLETLNRPLPETIEDIQNWHKQVQKTKQESEAEKASQIIPLKTGG
Q: With B1 as the molecule, how does the Km [2] read?
A: 2.52 ± 0.48 µM
